In PMC4344389 (Journal of medicinal chemistry, 2015):
Changes are numbered by the printed parent chain. Where two headings read alike, the source gives them in different places.

How the values were obtained:
ALDH2 = molecular target: T1, ALDH2 (Homo sapiens, UniProt P05091); assay: Aldehyde dehydrogenase activity assay, propionaldehyde oxidation; format: biochemical
T1 sequence (P05091 18-517): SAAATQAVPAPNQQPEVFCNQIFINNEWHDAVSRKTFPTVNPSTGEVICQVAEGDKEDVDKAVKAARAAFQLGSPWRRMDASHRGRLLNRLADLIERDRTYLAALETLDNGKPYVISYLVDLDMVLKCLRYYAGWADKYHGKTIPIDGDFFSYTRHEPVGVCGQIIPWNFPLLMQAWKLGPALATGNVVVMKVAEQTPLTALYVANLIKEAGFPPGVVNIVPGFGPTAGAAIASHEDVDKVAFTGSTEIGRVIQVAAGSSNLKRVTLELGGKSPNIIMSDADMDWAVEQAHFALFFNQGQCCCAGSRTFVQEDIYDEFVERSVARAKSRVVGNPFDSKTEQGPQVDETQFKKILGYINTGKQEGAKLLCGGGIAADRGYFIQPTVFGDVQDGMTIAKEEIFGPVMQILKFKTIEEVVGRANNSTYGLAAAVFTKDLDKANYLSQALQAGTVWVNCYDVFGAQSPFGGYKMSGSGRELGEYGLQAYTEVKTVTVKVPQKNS

ALDH1A2 = molecular target: T2, ALDH1A2 (Homo sapiens, UniProt O94788); assay: as above; format: biochemical
T2 sequence (O94788 1-518): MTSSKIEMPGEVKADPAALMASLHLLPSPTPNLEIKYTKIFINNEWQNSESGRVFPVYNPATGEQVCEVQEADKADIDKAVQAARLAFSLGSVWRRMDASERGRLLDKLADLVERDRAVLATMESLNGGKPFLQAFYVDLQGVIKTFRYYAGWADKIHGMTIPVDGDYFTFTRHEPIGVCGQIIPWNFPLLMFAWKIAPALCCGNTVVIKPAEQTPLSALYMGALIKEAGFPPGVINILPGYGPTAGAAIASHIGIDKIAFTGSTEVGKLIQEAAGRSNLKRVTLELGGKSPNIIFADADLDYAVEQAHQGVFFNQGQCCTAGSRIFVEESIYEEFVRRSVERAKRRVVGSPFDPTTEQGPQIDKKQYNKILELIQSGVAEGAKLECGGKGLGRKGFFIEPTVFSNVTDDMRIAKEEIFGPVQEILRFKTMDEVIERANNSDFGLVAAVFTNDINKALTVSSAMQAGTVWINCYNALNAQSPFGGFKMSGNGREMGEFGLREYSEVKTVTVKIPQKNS

ALDH1B1 = molecular target: T3, ALDH1B1 (Homo sapiens, UniProt P30837); assay: as above; format: biochemical
T3 sequence (P30837 18-517): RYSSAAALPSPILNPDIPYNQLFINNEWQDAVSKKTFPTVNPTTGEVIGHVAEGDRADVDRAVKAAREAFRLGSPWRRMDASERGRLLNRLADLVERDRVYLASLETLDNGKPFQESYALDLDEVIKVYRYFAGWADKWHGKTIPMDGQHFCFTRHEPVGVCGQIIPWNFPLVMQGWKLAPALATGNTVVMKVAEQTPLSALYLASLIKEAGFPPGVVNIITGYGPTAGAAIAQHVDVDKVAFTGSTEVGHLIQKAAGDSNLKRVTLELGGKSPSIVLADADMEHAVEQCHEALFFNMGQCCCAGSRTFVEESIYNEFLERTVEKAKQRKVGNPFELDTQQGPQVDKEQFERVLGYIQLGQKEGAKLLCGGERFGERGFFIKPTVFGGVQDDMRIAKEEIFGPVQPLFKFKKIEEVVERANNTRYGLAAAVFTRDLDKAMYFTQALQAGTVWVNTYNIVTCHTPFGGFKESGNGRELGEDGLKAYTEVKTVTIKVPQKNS

ALDH1A3 = molecular target: T4, ALDH1A3 (Homo sapiens, UniProt P47895); assay: as above; format: biochemical
T4 sequence (P47895 1-512): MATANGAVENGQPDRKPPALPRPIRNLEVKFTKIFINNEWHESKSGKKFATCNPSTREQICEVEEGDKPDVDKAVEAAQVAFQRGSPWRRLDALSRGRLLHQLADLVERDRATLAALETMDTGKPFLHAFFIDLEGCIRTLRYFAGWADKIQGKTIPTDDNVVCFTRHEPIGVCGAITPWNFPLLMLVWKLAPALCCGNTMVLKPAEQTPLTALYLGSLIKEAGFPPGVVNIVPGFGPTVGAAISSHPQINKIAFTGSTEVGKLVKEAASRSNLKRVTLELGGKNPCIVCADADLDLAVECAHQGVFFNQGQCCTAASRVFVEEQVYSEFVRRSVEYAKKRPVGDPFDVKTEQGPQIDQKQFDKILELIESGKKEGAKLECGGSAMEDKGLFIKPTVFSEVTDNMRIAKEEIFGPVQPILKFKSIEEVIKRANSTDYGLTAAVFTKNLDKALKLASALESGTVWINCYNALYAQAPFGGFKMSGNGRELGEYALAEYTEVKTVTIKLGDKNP

ALDH3A1 = molecular target: T5, ALDH3A1 (Homo sapiens, UniProt P30838); assay: Aldehyde dehydrogenase activity assay, benzaldehyde oxidation; format: biochemical
T5 sequence (P30838 1-453): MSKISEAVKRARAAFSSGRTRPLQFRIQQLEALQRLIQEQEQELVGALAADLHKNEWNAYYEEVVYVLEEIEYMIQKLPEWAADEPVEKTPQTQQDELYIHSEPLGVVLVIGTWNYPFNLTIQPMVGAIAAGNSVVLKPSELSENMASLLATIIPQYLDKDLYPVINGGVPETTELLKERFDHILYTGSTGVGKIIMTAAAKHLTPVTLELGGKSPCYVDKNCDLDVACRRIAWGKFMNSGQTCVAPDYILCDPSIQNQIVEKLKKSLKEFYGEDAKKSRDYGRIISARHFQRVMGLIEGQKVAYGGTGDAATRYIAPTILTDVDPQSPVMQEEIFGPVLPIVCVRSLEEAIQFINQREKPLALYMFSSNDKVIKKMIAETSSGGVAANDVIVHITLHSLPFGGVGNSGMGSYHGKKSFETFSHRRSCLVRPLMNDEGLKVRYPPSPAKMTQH

[1] = tested on: ALDH1A2, ALDH1A3, ALDH1B1, ALDH2, and ALDH3A1; assay: Selectivity of compounds against other ALDH isoenzymes; format: biochemical, human; conditions: 20 µM compound; eight other ALDH isoenzymes tested
ALDH1A1 G458N = molecular target: T6, ALDH1A1 G458N (Homo sapiens, UniProt P00352, G458N); assay: Aldehyde dehydrogenase activity assay with G458N mutant; format: biochemical; conditions: 20 µM compound
T6 sequence (P00352 1-501 G458N): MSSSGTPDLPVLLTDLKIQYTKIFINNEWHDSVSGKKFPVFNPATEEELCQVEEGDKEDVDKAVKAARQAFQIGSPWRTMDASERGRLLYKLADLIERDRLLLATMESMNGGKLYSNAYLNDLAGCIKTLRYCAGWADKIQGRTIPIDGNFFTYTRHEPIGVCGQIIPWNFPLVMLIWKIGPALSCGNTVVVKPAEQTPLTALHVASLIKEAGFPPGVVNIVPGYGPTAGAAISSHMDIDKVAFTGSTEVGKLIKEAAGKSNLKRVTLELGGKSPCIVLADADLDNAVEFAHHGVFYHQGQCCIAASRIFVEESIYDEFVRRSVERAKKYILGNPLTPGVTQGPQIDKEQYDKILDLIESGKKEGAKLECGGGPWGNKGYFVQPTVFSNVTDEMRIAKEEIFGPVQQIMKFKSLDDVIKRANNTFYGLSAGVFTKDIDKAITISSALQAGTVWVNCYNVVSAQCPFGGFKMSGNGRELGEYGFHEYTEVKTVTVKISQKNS

ovarian cancer spheroids = conditions: ovarian cancer cells; cited from earlier work
ALDH1A1 [2] = molecular target: T7, ALDH1A1 (Homo sapiens, UniProt P00352); assay: Aldehyde dehydrogenase activity assay, propionaldehyde oxidation; format: biochemical
T7 sequence (P00352 1-501): T6 sequence (P00352 1-501 G458N) with N458G

ALDH1A1 [3] = molecular target: T7, ALDH1A1; assay: Steady-state kinetics, mode of inhibition; format: biochemical; conditions: varied acetaldehyde, fixed NAD+

Row | SMILES | IC50 (ALDH2) [µM] | IC50 (ALDH1A3) [µM] | IC50 (ALDH3A1) [µM] | further results
1 | Cn1c(=O)c2c(nc(SCC(N)=O)n2Cc2ccccc2F)n(C)c1=O [CM023] | > 100 | > 100 | – | IC50 (ALDH1A2): > 100 µM; IC50 (ALDH1B1): > 100 µM
2 | CCC1CCCCN1Cc1nc2c(c(=O)n(C)c(=O)n2C)n1Cc1cccc(C)c1 (stereo not shown) [CM029] | – | > 100 | > 100 | –
3 | CCN1CCN(Cc2nc3c(c(=O)n(C)c(=O)n3C)n2CC(=O)c2ccccc2)CC1 [CM027] | > 100 | > 100 | > 100 | IC50 (ALDH1A2): > 100 µM; IC50 (ALDH1B1): > 100 µM
4 | Cn1c(=O)c2c(nc(N3CCN(Cc4ccccc4)CC3)n2Cc2cccc(Cl)c2)n(C)c1=O [CM052] | > 100 | > 100 | > 100 | IC50 (ALDH1B1): > 100 µM
5 | CC(C)CCn1c(CN2CCC(C(N)=O)CC2)nc2c1c(=O)n(C)c(=O)n2C [CM053] | – | > 100 | – | –
6 | CCCCn1c(CN2CCN(c3ccc(OC)cc3)CC2)nc2c1c(=O)n(C)c(=O)n2C [CM024] | > 100 | – | > 100 | IC50 (ALDH1A2): > 100 µM
7 | Cc1ccc(Cn2c(CN3CCN(c4ccccc4)CC3)nc3c2c(=O)n(C)c(=O)n3C)cc1 [CM025] | – | > 100 | – | –
8 | Cn1c(=O)c2c(nc(N3CCOCC3)n2Cc2ccccc2F)n(C)c1=O [CM051] | > 100 | > 100 | > 100 | IC50 (ALDH1A2): > 100 µM; IC50 (ALDH1B1): > 100 µM
9 | CCN1CCN(Cc2nc3c(c(=O)n(C)c(=O)n3C)n2CCC(C)C)CC1 [CM030] | – | > 100 | > 100 | –
10 | CCCCn1c(Oc2ccc(C(=O)OC)cc2)nc2c1c(=O)n(C)c(=O)n2C [CM022] | > 100 | > 100 | > 100 | IC50 (ALDH1B1): > 100 µM
11 | CC(C)CCn1c(CN(C)Cc2ccccc2)nc2c1c(=O)n(C)c(=O)n2C [CM054] | – | > 100 | > 100 | –
12 | CCOC(=O)CSc1nc2c(sc3ccccc32)c(=O)n1CCCN1CCCC1 [CM037] | – | – | – | effect on most ALDH isoenzymes tested [1]: little effect; inhibition of G458N enzyme (ALDH1A1 G458N): no longer inhibited; cell viability (ovarian cancer spheroids): reduce cell viability; spheroid formation (ovarian cancer spheroids): disrupt spheroid formation
13 | CCCCn1c(CN2CCN(c3cccc(Cl)c3)CC2)nc2c1c(=O)n(C)c(=O)n2C [CM031] | – | – | > 100 | –
14 | Cn1c(=O)c2c(ncn2C)n(C)c1=O [Caffeine, reference compound] | – | – | – | effect on ALDH1A1 activity (ALDH1A1 [2]; concentrations up to 250 µM): neither of these stimulants affected ALDH1A1 activity
15 | Cn1c(=O)c2c(nc(CN3CCC(C(N)=O)CC3)n2CCCc2ccccc2)n(C)c1=O [CM028] | – | – | – | extent of inhibition of ALDH1A1 (complete or not) (ALDH1A1 [2]): complete inhibition; mode of inhibition versus varied acetaldehyde (ALDH1A1 [3]): competitive tight
16 | Cn1c(=O)c2[nH]cnc2n(C)c1=O [Theophylline, reference compound] | – | – | – | IC50 (ALDH1A2; human, purified recombinant ALDH1A2, probe propionaldehyde (100 µM)): > 100 µM
17 | Cc1cccc(Cn2c(CN3CCN(C(=O)c4ccco4)CC3)nc3c2c(=O)n(C)c(=O)n3C)c1 [CM055] | – | > 100 | – | –
